# Source: article PMC9427784, “Structural bases for aspartate recognition and polymerization efficiency of cyanobacterial cyanophycin synthetase” (Nature Communications, 2022)
# Legend:
# TeCphA1 [1] = target: T1, TeCphA1 (Trichodesmium erythraeum, UniProt Q113V7); assay: phosphate release, molybdenum blue colorimetry; Michaelis-Menten fit; format: biochemical; details: one substrate varied; L-aspartate 5 mM, L-arginine 0.5 mM, (β-Asp-Arg)4 2 mM; 20 mM MgCl2, pH 8.2, 30°C; two ATP sites (G and M domains)
# T1 construct: gene Tery_1965; full-length, C-terminal His6 tag (pET-22b(+), NdeI/XhoI), E. coli BL21(DE3); D2 homotetramer; N (1-161), G (162-487), M (488-876) domains
# TeCphA1 [2] = target: T1, TeCphA1; assay: cryo-EM structure, […] Å; format: binding; details: 4 mM ATPγS, 20 mM MgCl2, pH 8.2; G and M domain sites; also in substrate-bound 7WAE (C1) and 7WAF (C2)
# TeCphA1 [3] = target: T1, TeCphA1; assay: cryo-EM structure, […] Å (C1); format: binding; details: complex with ATPγS, (β-Asp-Arg)4, Mg2+; 100 mM L-aspartate, pH 8.2; G domain site, seen in chain D
# [4] = target: cyanophycin synthetase (CphA1) from Trichodesmium erythraeum IMS101 (Trichodesmium erythraeum IMS101); assay: cryo-EM structure; single-particle cryo-EM of TeCphA1 in the apo, ATPγS-bound and substrate-bound states; 2-12 μM TeCphA1, Tris-HCl pH 8.0-8.2
# purified protein = substrate: N[C@@H](CC(=O)O)C(=O)O; assay: purified protein; details: one substrate varied, other substrates at ATP 4 mM, L-arginine 0.5 mM, (β-Asp-Arg)4 2 mM, 20 mM MgCl2, 20 mM KCl, pH 8.2, 30°C, positively cooperative, Hill fit
molecule,measurement,setting,value
Nc1ncnc2c1ncn2[C@@H]1O[C@H](COP(=O)(O)OP(=O)(O)OP(=O)(O)O)[C@@H](O)[C@H]1O [ATP],apparent Km,TeCphA1 [1],we have determined the apparent Km value for ATP
Nc1ncnc2c1ncn2[C@@H]1O[C@H](COP(=O)(O)OP(=O)(O)OP(O)(O)=S)[C@@H](O)[C@H]1O [ATPγS],"cryo-EM structure, 2.96 Å",TeCphA1 [2],7WAD for TeCphA1 bound with ATPγS
N[C@@H](CC(=O)O)C(=O)O [L-aspartate],"cryo-EM structure, 2.64 Å (C1)",TeCphA1 [3],the substrate aspartate was observed only in one protomer (chain D)
cyanophycin synthetase (CphA1) from Trichodesmium erythraeum IMS101 (enzyme),stoichiometry N,[4],4
TeCphA1 (Trichodesmium erythraeum IMS101) (protein) MKILKLQTLRGPNYWSIHRHKLVVMRLDLEDLYEKYTSDIPGFYKGLTEVLPSLVEHLCSPGVKGGFLTRVEKGTLIGHVIEHVAIELQELAGMPVGFGRTRETSTTGVFQVVIEYENEQAGRYAARAAVRLCQSIVDTGTYPATELQQDLEDLKELKNQASLGPSTEAIVKEAEARGIPWTQLGARFMIQFGYGVNQKKIQATLSNQTGILGVELACDKEGTKRILKDAGVPVPRGTVARYFDELQDAIEYVGGYPIVIKPLDGNHGRGITIDVKNWQEAEEAYDLARKASKTKTVIVERYYTGKDHRVLVVNGKVVAVAERVPAHVVGNGKSTIAELIEETNRDPQRGDGHDNILTRITVDKSALDILGKQGYSIDSIPLKGKKCFLRATANLSTGGIAVDRTDEIHPENVWLLSRVAKIIGLDIAGIDVVTEDISQPLREVEGVIVEVNAAPGFRMHVAPSRGLARNVAGAVMDMLFPGSKNGRIPILSVTGTNGKTTTTRLLAHIIKQTGKVVGYTTTDGTYIGEYLAETGDNTGPQSAHLILSDPTVEVAVLETARGGILRSGLGFSSCEVGIVLNVTADHLGIGDIDTIEQLAKLKSVVAESVMPKGYAVLNAEDPLVAAMADRVKGQVAYFSMDPNNELLLRHTEAGGLAAIYENGYISILKGDWTLRIEKAVNVPITMAGKAPFMIANALAACLAVFTQGVKIEHIRKGLSTFVASVDQTPGRMNMFNMGSYHALVDYAHNPASYEALGGFVRNWPGKRIGVVGGPGDRRDEDFVSLGELAADIFDEIIIKEDDDTRGRPRGNAAELICQGVKQFLNGIKNSESKATYESILDETAAINTALDRAPIDGLVVILPESVNRAISLIEGRHVIQDIELLQDSQREPKDQEVLKSSI,K0.5,purified protein,18.0 ± 1.1 mM
